Test results as given in patent US8927717B1, “Thiochromeno[2,3-c]quinolin-12-one derivatives, preparation method and application thereof” (National Defense Medical Center, priority 2014, dated 2015).

What was measured:
HCC-2998 = assay type: cell-based
SK-MEL-28 = assay type: cell-based
M14 = assay type: cell-based
IGROV1 = assay type: cell-based
OVCAR-4 = assay type: cell-based
TK-10 = assay type: cell-based
HOP-92 = assay type: cell-based; conditions: HOP-92, five dose
UACC-257 = assay type: cell-based
A498 = assay type: cell-based
TOP I (Topoisomerase I) [1] = molecular target: T1, TOP I (Topoisomerase I) (Homo sapiens, UniProt P11387); assay: TOP I mediated supercoiled DNA relaxation assay; assay type: biochemical; conditions: primary assay at 25 and/or 50 μM
T1 construct: purchased TopoGEN TG2005H
T1 sequence (P11387 1-765): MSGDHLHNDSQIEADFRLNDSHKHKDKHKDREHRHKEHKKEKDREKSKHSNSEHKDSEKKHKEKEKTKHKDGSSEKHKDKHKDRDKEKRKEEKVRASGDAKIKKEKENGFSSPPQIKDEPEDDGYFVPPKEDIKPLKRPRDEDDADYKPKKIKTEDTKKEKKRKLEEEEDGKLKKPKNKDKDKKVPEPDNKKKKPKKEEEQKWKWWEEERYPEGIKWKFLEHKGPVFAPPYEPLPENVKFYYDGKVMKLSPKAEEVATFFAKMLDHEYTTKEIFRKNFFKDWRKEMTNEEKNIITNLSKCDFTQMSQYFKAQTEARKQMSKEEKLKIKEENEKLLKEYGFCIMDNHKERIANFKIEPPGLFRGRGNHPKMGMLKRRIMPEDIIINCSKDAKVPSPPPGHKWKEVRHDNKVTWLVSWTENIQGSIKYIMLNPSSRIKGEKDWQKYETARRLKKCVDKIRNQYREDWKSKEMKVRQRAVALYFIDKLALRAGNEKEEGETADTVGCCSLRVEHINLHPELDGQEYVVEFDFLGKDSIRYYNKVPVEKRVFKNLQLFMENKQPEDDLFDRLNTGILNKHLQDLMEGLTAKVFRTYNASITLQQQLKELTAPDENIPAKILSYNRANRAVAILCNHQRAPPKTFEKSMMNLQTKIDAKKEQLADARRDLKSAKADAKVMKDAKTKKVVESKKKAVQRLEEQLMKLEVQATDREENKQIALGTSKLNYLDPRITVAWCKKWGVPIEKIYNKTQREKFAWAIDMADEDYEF
Procedure: According to the cell cytotoxicity, compounds 5, 7, 8, 16, 19, N2, N7, N8, N9, N14-N19, and N25 were also selected for primary TOP I and II activities assays at 25 and/or 50 μM (FIG. 2-4).

MALME-3M = assay type: cell-based
[2] = molecular target: T2, TOP II (Topoisomerase II) (Homo sapiens, UniProt P11388); assay: TOP II-catalyzed relaxation of plasmid DNA assay; assay type: biochemical
T2 construct: purchased TopoGEN TG-2000H-1
Procedure: We also performed TOP II-catalyzed relaxation of plasmid DNA assays (FIG. 5-7) to evaluate if compounds could inhibit TOP II. […] The IC50 value of compounds 7, N7, N8, N14, N15, N18, and N19 were about 10, 10, 1, 10, 5, 1, and 1 μM, respectively (detect by TopoGEN TG2005H, TG-2000H-1).

OVCAR-5 = assay type: cell-based
SF-268 = assay type: cell-based
NCI/ADR-RES = assay type: cell-based
MDA-MB-435 = assay type: cell-based
OVCAR-3 = assay type: cell-based; conditions: Ovarian cancer; 10^−5 molar; 48 hours; SRB
SF-539 = assay type: cell-based
CAKI-1 = assay type: cell-based
SK-MEL-2 = assay type: cell-based; conditions: SK-Mel-2, five dose
TOP I (Topoisomerase I) [3] = molecular target: T1, TOP I (Topoisomerase I); assay: TOP I mediated supercoiled DNA relaxation assay; assay type: biochemical; conditions: five different concentrations; TopoGEN TG2005H, TG-2000H-1
UACC-62 = assay type: cell-based
SNB-19 = assay type: cell-based
[4] = Homo sapiens, HCC-2998, five dose
[5] = Homo sapiens, SK-MEL-28, five dose
[6] = Melanoma, 10^−5 molar, 48 hours, SRB
[7] = Ovarian cancer, 10^−5 molar, 48 hours, SRB
[8] = Renal cancer, 10^−5 molar, 48 hours, SRB
[9] = Homo sapiens, MALME-3M, five dose
[10] = CNS cancer, 10^−5 molar, 48 hours, SRB
[11] = Homo sapiens, SF-539, five dose

T2 sequence (P11388 whole entry): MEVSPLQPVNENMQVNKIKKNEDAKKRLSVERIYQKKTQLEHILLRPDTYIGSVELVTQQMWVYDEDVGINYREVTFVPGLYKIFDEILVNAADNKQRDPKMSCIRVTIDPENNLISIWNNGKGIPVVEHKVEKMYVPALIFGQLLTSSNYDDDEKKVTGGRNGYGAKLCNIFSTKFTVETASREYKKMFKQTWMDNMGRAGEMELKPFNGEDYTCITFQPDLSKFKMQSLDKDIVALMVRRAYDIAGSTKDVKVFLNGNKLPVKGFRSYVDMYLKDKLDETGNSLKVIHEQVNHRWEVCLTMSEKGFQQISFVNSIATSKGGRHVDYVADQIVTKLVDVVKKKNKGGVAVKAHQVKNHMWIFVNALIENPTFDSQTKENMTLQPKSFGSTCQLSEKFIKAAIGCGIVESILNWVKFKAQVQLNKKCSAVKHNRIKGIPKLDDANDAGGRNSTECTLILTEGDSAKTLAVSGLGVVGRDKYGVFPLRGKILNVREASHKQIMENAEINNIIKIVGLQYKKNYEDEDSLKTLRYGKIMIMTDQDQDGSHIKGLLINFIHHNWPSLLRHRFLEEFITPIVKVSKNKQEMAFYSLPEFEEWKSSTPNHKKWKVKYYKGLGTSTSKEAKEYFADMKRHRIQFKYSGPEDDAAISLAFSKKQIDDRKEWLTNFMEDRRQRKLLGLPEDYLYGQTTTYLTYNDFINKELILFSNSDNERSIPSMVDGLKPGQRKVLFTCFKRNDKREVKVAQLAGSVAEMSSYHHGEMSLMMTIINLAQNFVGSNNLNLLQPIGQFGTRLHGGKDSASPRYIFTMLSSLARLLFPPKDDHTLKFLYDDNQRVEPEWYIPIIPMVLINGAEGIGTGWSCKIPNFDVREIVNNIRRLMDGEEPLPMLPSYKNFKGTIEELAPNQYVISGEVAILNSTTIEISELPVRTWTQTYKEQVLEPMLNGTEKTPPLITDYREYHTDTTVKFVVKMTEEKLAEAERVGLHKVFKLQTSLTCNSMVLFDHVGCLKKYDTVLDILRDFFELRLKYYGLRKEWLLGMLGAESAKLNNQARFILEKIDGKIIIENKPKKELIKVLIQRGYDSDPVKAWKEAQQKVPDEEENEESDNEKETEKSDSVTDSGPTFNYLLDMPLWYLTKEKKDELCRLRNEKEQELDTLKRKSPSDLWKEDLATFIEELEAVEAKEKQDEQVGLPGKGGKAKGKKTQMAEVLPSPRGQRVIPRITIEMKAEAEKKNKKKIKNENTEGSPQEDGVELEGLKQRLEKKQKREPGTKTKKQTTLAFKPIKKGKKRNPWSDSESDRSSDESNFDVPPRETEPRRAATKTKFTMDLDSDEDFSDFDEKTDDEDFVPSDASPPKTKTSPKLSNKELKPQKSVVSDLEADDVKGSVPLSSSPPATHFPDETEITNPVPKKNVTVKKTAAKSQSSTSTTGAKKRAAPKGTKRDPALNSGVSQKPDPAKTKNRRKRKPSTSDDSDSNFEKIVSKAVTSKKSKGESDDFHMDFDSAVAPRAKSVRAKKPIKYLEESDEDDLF

For `NCCNc1nc2ccccc2c2c(=O)c3cc(Cl)ccc3sc12` [Compound N14, 6-((2-Aminoethyl)amino)-10-chloro-12H-thiochromeno[2,3-c]quinolin-12-one], the “Growth percent HCC-2998” value (HCC-2998; Colon cancer, 10^−5 molar, 48 hours, SRB) was −90.43%, the TGI (HCC-2998; HCC-2998, five dose) was 4.06 µM and the GI50 (HCC-2998; [4]) was 2.03 µM. It also gave an LC50 (HCC-2998; [4]) of 8.14 µM, a GI50 (SK-MEL-28; [5]) of 1.75 µM and an LC50 (SK-MEL-28; [5]) of 5.66 µM. The “Growth percent SK-MEL-28” value (SK-MEL-28; [6]) was −96.20%, the TGI (SK-MEL-28; SK-MEL-28, five dose) was 3.15 µM and the GI50 (M14; Homo sapiens, M14, five dose) was 1.83 µM. For the same molecule, the LC50 (M14; Homo sapiens, M14, five dose) was 6.14 µM, the TGI (M14; M14, five dose) was 3.35 µM and the “Growth percent M14” value (M14; [6]) was −55.62%. The GI50 (IGROV1; Homo sapiens, IGROV-1, IGROV1, five dose) was 1.61 µM, the TGI (IGROV1; IGROV1, five dose) was 3.45 µM and the “Growth percent IGROV1” value (IGROV1; [7]) was −77.31%. The GI50 (OVCAR-4; Homo sapiens, OVCAR-4, five dose) was 1.52 µM, the CC50 (OVCAR-4; Homo sapiens, OVCAR-4, five dose, read-out: LC50 (the source's name)) was 6.54 µM and the TGI (OVCAR-4; OVCAR-4, five dose) was 3.15 µM. The “Growth percent OVCAR-4” value (OVCAR-4; [7]) was −20.15%, the GI50 (TK-10; Homo sapiens, TK-10, five dose) was 2.06 µM and the CC50 (TK-10; Homo sapiens, TK-10, five dose, read-out: LC50 (the source's name)) was 6.21 µM. The “Growth percent TK-10” value (TK-10; [8]) was −28.04%, the TGI (TK-10; TK-10, five dose) was 3.58 µM and the TGI (HOP-92) was 3.05 µM. The GI50 (HOP-92; Homo sapiens) was 1.03 µM, the LC50 (HOP-92; Homo sapiens) was 9.04 µM and the GI50 (UACC-257; Homo sapiens, UACC-257, five dose) was 1.9 µM. For the same molecule, the CC50 (UACC-257; Homo sapiens, UACC-257, five dose, read-out: LC50 (the source's name)) was 6.7 µM, the “Growth percent UACC-257” value (UACC-257; [6]) was −67.35% and the TGI (UACC-257; UACC-257, five dose) was 3.56 µM. The TGI (A498; A498, five dose) was 4.99 µM, the GI50 (A498; Homo sapiens, A498, five dose) was 1.45 µM and the CC50 (A498; Homo sapiens, A498, five dose, read-out: LC50 (the source's name)) was 29.2 µM. For the same molecule, the “Growth percent A498” value (A498; [8]) was 60.29%, the “inhibitory effect in TOP I activity assay compared with CPT” value (TOP I (Topoisomerase I) [1]) was “more potent inhibitory effects than CPT” and the GI50 (MALME-3M; [9]) was 1.98 µM. The LC50 (MALME-3M; [9]) was 7.93 µM, the TGI (MALME-3M; MALME-3M, five dose) was 3.96 µM and the “Growth percent MALME-3M” value (MALME-3M; [6]) was −48.42%. The IC50 ([2]; five different concentrations, TopoGEN TG2005H, TG-2000H-1, read-out: IC50 value, TOP II mediated supercoiled DNA relaxation) was ~10 µM, the “inhibitory effect in TOP II relaxation assay compared with VP-16” value ([2]; primary assay at 25 and/or 50 μM) was “more potent inhibitory effects than the positive agent VP-16” and the GI50 (OVCAR-5; Homo sapiens, OVCAR-5, five dose) was 1.46 µM. For the same molecule, the CC50 (OVCAR-5; Homo sapiens, OVCAR-5, five dose, read-out: LC50 (the source's name)) was 5.66 µM, the TGI (OVCAR-5; OVCAR-5, five dose) was 2.88 µM and the “Growth percent OVCAR-5” value (OVCAR-5; [7]) was −52.16%. The “Growth percent SF-268” value (SF-268; [10]) was −67.65%, the GI50 (SF-268; Homo sapiens, SF-268, five dose) was 1.59 µM and the CC50 (SF-268; Homo sapiens, SF-268, five dose, read-out: LC50 (the source's name)) was 6.55 µM. For the same molecule, the TGI (SF-268; SF-268, five dose) was 3.23 µM, the GI50 (NCI/ADR-RES; Homo sapiens, NCI/ADR-RES, five dose) was 1.88 µM and the TGI (NCI/ADR-RES; NCI/ADR-RES, five dose) was 3.67 µM. The “Growth percent NCI/ADR-RES” value (NCI/ADR-RES; [7]) was −42.68%, the GI50 (MDA-MB-435; Homo sapiens, MDA-MB-435, five dose) was 1.82 µM and the TGI (MDA-MB-435; MDA-MB-435, five dose) was 3.59 µM. The “Growth percent MDA-MB-435” value (MDA-MB-435; [6]) was −85.39%, the “Growth percent OVCAR-3” value (OVCAR-3) was −84.15% and the “Growth percent SF-539” value (SF-539; [10]) was 2.13%. It also gave a GI50 (SF-539; [11]) of 1.57 µM, an LC50 (SF-539; [11]) of 5.52 µM and a TGI (SF-539; SF-539, five dose) of 2.95 µM. For the same molecule, the TGI (CAKI-1; CAKI-1, five dose) was 3.27 µM, the GI50 (CAKI-1; Homo sapiens, CAKI-1, five dose) was 1.56 µM and the “Growth percent CAKI-1” value (CAKI-1; [8]) was −75.30%. For the same molecule, the GI50 (SK-MEL-2; Homo sapiens) was 1.98 µM, the LC50 (SK-MEL-2; Homo sapiens) was 7.87 µM and the TGI (SK-MEL-2) was 3.95 µM. For the same molecule, the IC50 (TOP I (Topoisomerase I) [3]) was ~1 µM, the GI50 (UACC-62; Homo sapiens, UACC-62, five dose) was 1.67 µM and the CC50 (UACC-62; Homo sapiens, UACC-62, five dose, read-out: LC50 (the source's name)) was 6.52 µM. The “Growth percent UACC-62” value (UACC-62; [6]) was −96.67%, the TGI (UACC-62; UACC-62, five dose) was 3.30 µM and the “Growth percent SNB-19” value (SNB-19; [10]) was 40.06%. For the same molecule, the GI50 (SNB-19; Homo sapiens, SNB-19, five dose) was 1.65 µM and the TGI (SNB-19; SNB-19, five dose) was 3.18 µM.
